Experiments:
[1] = tested on: U251MG glioblastoma cells; assay: CyQuant cell viability/proliferation assay, U251MG; assay type: cell-based, human; settings: for Inhibitory effect on viability of U251MG (tumor) cells, in words: 5 micromolar; for Inhibitory effect on viability of U251MG (tumor) cells, in words / U251MG % inhibition / inhibition at 5 µM: Table 3 numbering (isolates 1-16); for U251MG % inhibition / inhibition at 5 µM: at 5 μM, 72 h; for inhibition at 5 µM: Homo sapiens, U-251; for Inhibitory potency compared with 22 (CyQuant): 72-h treatment, FIG. 10, synthetic derivatives of 22
Procedure: (§1) The cell viability assay was performed as previously reported (Zhang X, et al. (2010)). Briefly, a 10 millimolar concentration stock solution in dimethylsulfoxide (DMSO) of the tested molecule was first prepared. Next, the stock solution was diluted down to various working solutions in water. Thus, a formulation of the tested compound in a DMSO/water mixture was used to test for cell viability. (A novel small-molecule disrupts STAT3 SH2 domainphosphotyrosine interactions and STAT3-dependent tumor processes, Biochem Pharmacol 79:1398-1409; Zhao W, Jaganathan S, & Turkson J (2010), A cell-permeable STAT3 SH2 domain mimetic inhibits STAT3 activation and induces antitumor cell effects in vitro. J Biol Chem. 285:35855-35865). Cells (U251MG, MDA-MB-231 or NIH3T3) were obtained from ATCC (Manassas, Va.) and were cultured in 96-well plates at 2,000 cells per well for 24 h and were treated with compounds (5 micromolar concentration) for 72 h. Cell viabilty was determined using CyQuant assay, according to the manufacturer's (Invitrogen, CA, USA) instructions. Relative viability of the treated cells was normalized to the DMSO-treated control cells.

[2] = tested on: MDA-MB-231 breast cancer cells; assay: CyQuant cell viability/proliferation assay, MDA-MB-231; assay type: cell-based, human; settings: for MDA-MB-231 % inhibition / inhibition at 5 µM: at 5 μM, 72 h, Table 3 numbering (isolates 1-16); for inhibition at 5 µM: Homo sapiens, MDA-MB-231; for Inhibition of breast cancer MDA-MB-231, in words: 72-h treatment, FIG. 10
Procedure: as §1

[3] = tested on: normal NIH3T3 mouse fibroblasts; assay: CyQuant cell viability/proliferation assay, NIH3T3; assay type: cell-based; settings: Table 3 numbering (isolates 1-16); for NIH-3T3 % inhibition / inhibition at 5 µM: at 5 μM, 72 h; for inhibition at 5 µM: Mus musculus, NIH3T3, read-out: NIH-3T3 % inhibition
Procedure: as §1

[4] = tested on: pY705STAT3 in U251MG or MDA-MB-231 cells; assay: Immunoblotting of pY705STAT3 in treated tumor cells; settings: 5 micromolar, U251MG or MDA-MB-231; for Effect on pY705STAT3 / STAT3 activity (immunoblot), in words: 0-24 h, Table 1/FIG. 2 numbering
Procedure: Positions of STATs:DNA complexes or proteins in gel are labeled; control lanes (0) represent nuclear extracts or whole-cell lysates prepared from 0.05% DMSO-treated cells. Data are representative of at least three to four independent determinations.
Lysates of equal total protein prepared in the lysis buffer (50 mM Hepes, pH 7.5, 150 mM NaCl, 2 mM EDTA, 1% Triton X-100, 0.1% SDS), were subjected to IP or Western blotting analysis. Antibodies against STAT3, pY705STAT3, Src, pY416Src, Erk1/2, and pT202/Y204Erk1/2 and GAPDH (Cell Signaling Technology, Danvers, Mass.), and anti-β-actin, and HSP105 (Santa Cruz Biotechnology, Dallas, Tex.) are from the designated sources.
Whole-cell lysates were prepared in boiling SDS sample loading buffer to extract total proteins, as reported previously. […] Nitrocellulose membranes were probed with primary antibodies, and the detection of horseradish peroxidase-conjugated secondary antibodies by enhanced chemiluminescence (Amersham) was performed. Antibodies used were monoclonal anti-pYSTAT3 and anti-STAT3 antibodies (Cell Signaling Technology, Danvers, Mass.).

| Molecule | U251MG % inhibition [1] | MDA-MB-231 % inhibition [2] | NIH-3T3 % inhibition [3] | also measured |
| --- | --- | --- | --- | --- |
| 8α-(2′Z-tigloyloxy)hirsutinolide-13-O-acetate [Compound 2] | 48.6% | ne (ne, no effect inhibition) | 8.0% | Inhibitory effect on viability of U251MG (tumor) cells, in words [1]: weak inhibitory effect; Inhibition of pY705STAT3 (immunoblot), in words ([4]; Table 3 numbering (isolates 1-16)): inhibited STAT3 phosphorylation |
| 8α-(4-hydroxytigloyloxy)-hirsutinolide [Compound 3] | ne (ne, no effect inhibition) | ne (ne, no effect inhibition) | ne (ne, no effect inhibition) |  |
| CC=C(C)C(=O)OC1CC(C)C2(O)CCC(C)(C=C3OC(=O)C(CO)=C31)O2 (stereo not drawn) [Compound 1, 8α-(2′Z-tigloyloxy)hirsutinolide] | ne (ne, no effect inhibition) | ne (ne, no effect inhibition) | ne (ne, no effect inhibition) |  |
| CC=C(C)C(=O)OCC1=C2C(=CC3(C)CCC(O)(O3)C(C)CC2O)OC1=O (stereo not drawn) [Compound 4, 8α-hydroxy-13-O-tigloyl-hirsutinolide] | 80.9% | 26.2% | 32.1% | Inhibitory effect on viability of U251MG (tumor) cells, in words [1]: high inhibitory effect; Inhibitory effect on NIH3T3 fibroblasts, in words ([3]; 5 micromolar): lower inhibitory effect |
| C=C(C)C(=O)OC1CC(C)C2(O)CCC(C)(C=C3OC(=O)C(CO)=C31)O2 (stereo not drawn) [Compound 5, 8α-(2-methylacryloyloxy)-hirsutinolide] | ne (ne, no effect inhibition) | ne (ne, no effect inhibition) | ne (ne, no effect inhibition) |  |
| CC1(C)C[C@H](O)C[C@@]2(C)OC(=O)C=C12 [Compound 12, loliolide] |  |  |  | inhibition at 5 µM [1]: < 6%; inhibition at 5 µM [2]: < 6%; inhibition at 5 µM [3]: < 6% |
| O=c1cc(-c2ccc(O)cc2)oc2cc(O)cc(O)c12 [Compound 15, apigenine] |  |  |  | inhibition at 5 µM [1]: < 6%; inhibition at 5 µM [2]: < 6%; inhibition at 5 µM [3]: < 6% |
| C/C=C(\C)C(=O)OCC1=C2/C(=C\C3(C)CCC(O)(O3)[C@H](C)C[C@@H]2OC(=O)/C(C)=C/C)OC1=O (stereo partly drawn) [zmm-1-36, (4S,6R,E)-7-hydroxy-6,10-dimethyl-3-((((E)-2-methylbut-2-enoyl)oxy)methyl)-2-oxo-2,4,5,6,7,8,9,10-octahydro-7,10-epoxycyclodeca[b]furan-4-yl(E)-2-methylbut-2-enoate] |  |  |  | Inhibitory potency compared with 22 (CyQuant) [1]: retained the inhibitory potency as 22; Cell-type selectivity of growth inhibition, in words ([1]; U251MG versus other cells incl. NIH3T3, Table 1/FIG. 2 numbering): lost cell-type specificity; Effect on pY705STAT3 / STAT3 activity (immunoblot), in words [4]: inhibited pY705STAT3 |
| C/C=C(\C)C(=O)OCC1=C2/C(=C\C3(C)CCC(OC)(O3)[C@H](C)C[C@@H]2OC(=O)/C(C)=C/C)OC1=O (stereo partly drawn) [zmm-1-37, (4S,6R,E)-7-methoxy-6,10-dimethyl-3-((((E)-2-methylbut-2-enoyl)oxy)methyl)-2-oxo-2,4,5,6,7,8,9,10-octahydro-7,10-epoxycyclodeca[b]furan-4-yl(E)-2-methylbut-2-enoate] |  |  |  | Inhibitory potency compared with 22 (CyQuant) [1]: retained the inhibitory potency as 22; Inhibition of breast cancer MDA-MB-231, in words [2]: also inhibited breast cancer, MDA-MB-231; Effect on pY705STAT3 / STAT3 activity (immunoblot), in words [4]: inhibited pY705STAT3 |
| C[C@@H]1C[C@H](O)C2=C(COC(=O)/C=C/c3ccc(F)cc3)C(=O)O/C2=C/C2(C)CCC1(O)O2 (some centres unmarked) [zmm-1-78] |  |  |  | Inhibition of breast cancer MDA-MB-231, in words [2]: also inhibited breast cancer, MDA-MB-231 |
| (9Z,12S,13S)-dihydroxy-9-octadecanoic acid [Compound 16] | ne (ne, no effect inhibition) | ne (ne, no effect inhibition) | ne (ne, no effect inhibition) |  |

From US10800790B2, “Sesquiterpenoid STAT3 inhibitors” (University of Hawaii, priority 2013, dated 2020)
